For 2 compounds, IC50 results are on record in patent US7547705B2, “Substituted 8′-pyri(MI)dinyl-dihydrospiro-[cycloalkylamine]-pyrimido[1,2-a]pyrimidin-6-one derivatives” (Sanofi-Aventis, priority 2003, dated 2009).

The experiment concerns the target GSK3β (Homo sapiens, UniProt P49841). The experiment is described as follows: Inhibitory activity against GSK3β (33P-ATP phosphorylation of prephosphorylated GS1 peptide, two protocols). It is filed as biochemical. Conditions: GS1 peptide / 33P-ATP filter assay; which of the two protocols was used is not stated. How it is done:
Inhibitory activity of the medicament of the present invention against GSK3β: Two different protocols can be used. In a first protocol: 7.5 μM of prephosphorylated GS1 peptide and 10 μM ATP (containing 300,000 cpm of 33P-ATP) were incubated in 25 mM Tris-HCl, pH 7.5, 0.6 mM DTT 6 mM MgCl2, 0.6 mM EGTA, 0.05 mg/ml BSA buffer for 1 hour at room temperature in the presence of GSK3beta (total reaction volume: 100 microliters). In a second protocol: 4.1 μM of prephosphorylated GSI peptide and 42 μM ATP (containing 260,000 cpm 33P-ATP) were incubated in 80 mM Mes-NaOH, pH 6.5, 1 mM Mg acetate, 0.5 mM EGTA, 5 mM 2-mercaptoethanol, 0.02% Tween 20,10% glycerol buffer for 2 hours at room temperature in the presence of GSK3beta. Inhibitors were solubilised in DMSO (final solvent concentration in the reaction medium, 1%). The reaction was stopped with 100 microliters of a solution made of 25 g polyphosphoric acid (85% P2O5), 126 ml 85% H3PO4, H2O to 500 ml and then diluted to 1:100 before use. An aliquot of the reaction mixture was then transferred to Whatman P81 cation exchange filters and rinsed with the solution described above. Incorporated 33P radioactivity was determined by liquid scintillation spectrometry. The phosphorylated GS-1 peptide had the following sequence: NH2-[…](P)EDEE-COOH. […]

By IC50 is commonly meant the point on the concentration scale where inhibition reaches its midpoint.

Sequence of GSK3β (P49841 whole entry, species assumed): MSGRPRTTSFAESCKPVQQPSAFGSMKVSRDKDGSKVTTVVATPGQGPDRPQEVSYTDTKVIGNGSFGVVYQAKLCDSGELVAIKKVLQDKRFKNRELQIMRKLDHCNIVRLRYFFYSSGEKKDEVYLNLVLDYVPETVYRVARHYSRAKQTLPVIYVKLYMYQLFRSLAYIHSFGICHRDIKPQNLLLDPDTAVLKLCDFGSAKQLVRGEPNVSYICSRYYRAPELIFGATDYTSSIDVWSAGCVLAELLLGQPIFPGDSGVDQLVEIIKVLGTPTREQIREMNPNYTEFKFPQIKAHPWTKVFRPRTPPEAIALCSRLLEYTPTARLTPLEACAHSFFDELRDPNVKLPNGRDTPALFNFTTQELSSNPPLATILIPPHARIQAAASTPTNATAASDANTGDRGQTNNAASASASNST

For the compound `CN1CCC2(CC1)CCn1c(nc(-c3ccncc3)cc1=O)N2CC(=O)c1ccccc1` [compound No. 4 of table 1, 1-Methyl-1′-(2-oxo-2-phenylethyl)-8′-(pyridin-4-yl)-3′,4′-dihydrospiro[piperidine-4,2′-pyrimido[1,2-a]pyrimidin]-6′(1′H)-one], the IC50 was 7 nM.
The figure for `CN1CCC2(CCn3c(nc(-c4ccncc4)cc3=O)N2CC(=O)c2ccccc2)C1` (centres unmarked) [compound No. 4 of table 2, 1′-Methyl-1-(2-oxo-2-phenylethyl)-8-(pyridin-4-yl)-3,4-dihydrospiro (pyrimido[1,2-a]pyrimidine-2,3′-pyrrolidin]-6(1H)-one] is 6 nM.
